Measurements as given in article PMC9820568, “Near-Infrared Imaging of Steroid Hormone Activities Using Bright BRET Templates” (International Journal of Molecular Sciences, 2022).
Each block holds one compound with its values, some of them ahead of it.

Key:
NLuc (NanoLuc) [1] = target: T1, NLuc (NanoLuc) (Oplophorus gracilirostris, UniProt Q9GV45, A31E/Q38R/Q45L/L54V/A60N/K70R/V71I/A81I/F95D/L99Q/M102K/I117V/P142E/Q151K/Y165I/N193R); test: bioluminescence imaging and spectra, COS-7; assay type: cell-based; details: live cells and lysate; […] substrate in PBS
T1 construct: engineered NanoLuc variant of the 19 kDa subunit, expressed from pcDNA3.1(+) in COS-7, mostly cytosolic

[2] = target: T2, LSSmNep-GR5GS-NLuc (GR HLBD) (Homo sapiens, UniProt P04150); test: NIR-BRET, COS-7 stably expressing single-chain probe; assay type: cell-based; details: live cells stimulated […] h; DBlueC substrate; […] nm filter
T2 construct: gene NR3C1; stably expressed in COS-7
T2 sequence (P04150 486-777): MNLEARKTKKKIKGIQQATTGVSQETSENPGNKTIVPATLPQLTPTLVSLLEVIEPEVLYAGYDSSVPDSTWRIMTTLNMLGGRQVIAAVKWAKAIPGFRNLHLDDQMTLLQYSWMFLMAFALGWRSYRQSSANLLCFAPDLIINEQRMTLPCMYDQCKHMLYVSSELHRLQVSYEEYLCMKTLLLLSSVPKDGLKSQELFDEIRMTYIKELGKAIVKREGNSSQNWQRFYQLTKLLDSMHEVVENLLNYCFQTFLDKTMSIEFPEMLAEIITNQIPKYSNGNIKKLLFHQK

NLuc (NanoLuc) [3] = target: T1, NLuc (NanoLuc); test: bioluminescence spectra, COS-7 lysate; assay type: biochemical; details: substrate solution […] in PBS

T1 sequence (Q9GV45 28-196 with the stated changes): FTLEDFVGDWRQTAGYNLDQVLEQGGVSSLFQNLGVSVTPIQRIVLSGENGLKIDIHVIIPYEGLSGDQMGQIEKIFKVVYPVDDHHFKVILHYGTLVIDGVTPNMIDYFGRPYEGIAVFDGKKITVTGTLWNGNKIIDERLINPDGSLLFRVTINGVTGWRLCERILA

Compound: Oc1c(Cc2ccccc2)nc2c(Cc3ccccc3)nc(-c3ccccc3)cn12 [DBlueC, DeepBlueC]
bioluminescence imaging and spectra, COS-7 (NLuc (NanoLuc) [1]): DBlueC and nCTZ were exclusively bright with NLuc and ALuc47, respectively

fold NIR-BRET intensity at 10^-6 M [2]: 1.3 fold
Compound: C[C@]12CCC(=O)C=C1CC[C@@H]1[C@@H]2[C@@H](O)C[C@@]2(C)[C@H]1CC[C@]2(O)C(=O)CO [cortisol]

Compound: Oc1ccc(Cc2nc3c(Cc4ccccc4)nc(-c4ccc(O)cc4)cn3c2O)cc1 [nCTZ, native coelenterazine]
bioluminescence spectra, COS-7 lysate (NLuc (NanoLuc) [3]): The nCTZ was commonly bright among all the tested marine luciferases
